Laboratory results reported in article PMC6407917, “Identification of GSK3186899/DDD853651 as a Preclinical Development Candidate for the Treatment of Visceral Leishmaniasis” (Journal of Medicinal Chemistry, 2018).

What was measured:
Experiment in all cases: biochemical
Set-up in all cases: species or system HEK293/K-562/placenta mixed human extract; Kinobeads chemoproteomic competition binding, quantified by TMT LC-MS/MS, dose response up to 20 uM
[1] = target: PIM1 (Homo sapiens, UniProt P11309)
[2] = target: PRKAB1 (Homo sapiens, UniProt Q9Y478)
[3] = target: NUAK1 (Homo sapiens, UniProt O60285)
[4] = target: PKN1 (Homo sapiens, UniProt Q16512)
[5] = target: OXSR1 (Homo sapiens, UniProt O95747)
OXSR1, sequence (O95747 whole entry): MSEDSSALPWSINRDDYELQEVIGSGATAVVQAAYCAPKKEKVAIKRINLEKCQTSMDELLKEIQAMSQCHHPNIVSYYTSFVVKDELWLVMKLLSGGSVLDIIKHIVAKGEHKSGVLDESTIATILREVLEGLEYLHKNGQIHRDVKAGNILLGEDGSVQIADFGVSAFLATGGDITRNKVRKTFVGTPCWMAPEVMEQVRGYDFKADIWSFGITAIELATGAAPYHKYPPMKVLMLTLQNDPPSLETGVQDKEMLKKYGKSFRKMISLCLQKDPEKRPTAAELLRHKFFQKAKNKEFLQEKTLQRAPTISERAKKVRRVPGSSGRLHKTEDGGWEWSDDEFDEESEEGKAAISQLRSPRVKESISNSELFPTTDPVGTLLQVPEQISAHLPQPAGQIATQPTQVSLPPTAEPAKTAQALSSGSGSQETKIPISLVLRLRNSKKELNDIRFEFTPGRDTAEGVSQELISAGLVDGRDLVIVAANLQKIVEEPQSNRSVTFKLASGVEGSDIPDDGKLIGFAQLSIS

[6] = target: MAPK9 (Homo sapiens, UniProt P45984)
MAPK9, sequence (P45984 whole entry): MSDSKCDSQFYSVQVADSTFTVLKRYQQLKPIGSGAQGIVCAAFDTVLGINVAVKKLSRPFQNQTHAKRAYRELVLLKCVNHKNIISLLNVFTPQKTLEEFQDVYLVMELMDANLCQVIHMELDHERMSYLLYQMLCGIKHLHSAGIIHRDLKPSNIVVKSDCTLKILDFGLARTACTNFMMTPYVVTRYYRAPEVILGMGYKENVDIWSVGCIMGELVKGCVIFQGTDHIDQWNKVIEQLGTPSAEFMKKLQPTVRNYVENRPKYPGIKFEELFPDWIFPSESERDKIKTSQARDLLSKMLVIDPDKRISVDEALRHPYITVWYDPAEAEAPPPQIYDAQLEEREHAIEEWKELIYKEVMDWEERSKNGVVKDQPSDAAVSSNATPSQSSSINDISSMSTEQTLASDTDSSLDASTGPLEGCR

[7] = target: MKNK1 (Homo sapiens, UniProt Q9BUB5)
MKNK1, sequence (Q9BUB5 whole entry): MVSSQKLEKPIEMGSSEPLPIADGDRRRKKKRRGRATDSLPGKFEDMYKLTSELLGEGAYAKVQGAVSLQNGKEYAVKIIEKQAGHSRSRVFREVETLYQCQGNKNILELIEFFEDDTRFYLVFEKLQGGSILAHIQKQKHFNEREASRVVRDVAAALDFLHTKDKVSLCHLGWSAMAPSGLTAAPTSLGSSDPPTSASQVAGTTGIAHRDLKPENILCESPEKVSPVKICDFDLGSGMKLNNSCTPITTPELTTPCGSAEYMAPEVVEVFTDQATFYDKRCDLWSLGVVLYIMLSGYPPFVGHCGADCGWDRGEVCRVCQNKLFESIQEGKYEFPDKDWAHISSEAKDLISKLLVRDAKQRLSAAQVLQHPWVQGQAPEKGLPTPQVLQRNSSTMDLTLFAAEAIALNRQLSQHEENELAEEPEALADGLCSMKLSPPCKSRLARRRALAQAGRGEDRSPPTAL

[8] = target: IRAK3 (Homo sapiens, UniProt Q9Y616)
IRAK3, sequence (Q9Y616 whole entry): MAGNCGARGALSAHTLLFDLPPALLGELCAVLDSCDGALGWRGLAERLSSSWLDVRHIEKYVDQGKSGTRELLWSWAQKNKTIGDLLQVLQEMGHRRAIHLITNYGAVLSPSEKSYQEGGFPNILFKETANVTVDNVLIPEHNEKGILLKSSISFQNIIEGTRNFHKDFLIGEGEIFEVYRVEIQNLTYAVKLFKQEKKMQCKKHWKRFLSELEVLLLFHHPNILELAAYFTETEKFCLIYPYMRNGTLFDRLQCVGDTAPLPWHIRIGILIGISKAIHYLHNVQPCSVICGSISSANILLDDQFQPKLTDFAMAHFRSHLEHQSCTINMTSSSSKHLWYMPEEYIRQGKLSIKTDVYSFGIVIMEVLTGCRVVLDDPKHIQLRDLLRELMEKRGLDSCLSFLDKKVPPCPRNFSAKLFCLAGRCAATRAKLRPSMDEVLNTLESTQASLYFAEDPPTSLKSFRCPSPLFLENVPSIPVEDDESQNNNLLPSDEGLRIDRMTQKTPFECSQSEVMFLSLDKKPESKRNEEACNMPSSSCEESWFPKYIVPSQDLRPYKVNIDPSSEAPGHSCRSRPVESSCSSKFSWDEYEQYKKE

[9] = target: RPS6KB1 (Homo sapiens, UniProt P23443)
[10] = target: RIPK1 (Homo sapiens, UniProt Q13546)
[11] = target: AKT1 (Homo sapiens, UniProt P31749)
AKT1, sequence (P31749 whole entry): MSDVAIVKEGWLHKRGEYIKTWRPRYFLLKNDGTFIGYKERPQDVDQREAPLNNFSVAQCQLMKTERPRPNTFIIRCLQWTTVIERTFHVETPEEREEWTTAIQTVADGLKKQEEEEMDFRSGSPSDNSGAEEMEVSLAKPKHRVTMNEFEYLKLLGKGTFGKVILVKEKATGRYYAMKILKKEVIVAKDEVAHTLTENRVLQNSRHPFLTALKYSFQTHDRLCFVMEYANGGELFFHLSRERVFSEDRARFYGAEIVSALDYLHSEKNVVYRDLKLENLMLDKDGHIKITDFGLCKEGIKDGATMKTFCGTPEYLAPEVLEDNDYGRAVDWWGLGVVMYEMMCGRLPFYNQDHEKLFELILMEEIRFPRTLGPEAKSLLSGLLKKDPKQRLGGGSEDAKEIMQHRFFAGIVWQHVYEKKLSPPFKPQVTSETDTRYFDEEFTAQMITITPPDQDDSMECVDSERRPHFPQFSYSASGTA

[12] = target: STK3 (Homo sapiens, UniProt Q13188)
STK3, sequence (Q13188 whole entry): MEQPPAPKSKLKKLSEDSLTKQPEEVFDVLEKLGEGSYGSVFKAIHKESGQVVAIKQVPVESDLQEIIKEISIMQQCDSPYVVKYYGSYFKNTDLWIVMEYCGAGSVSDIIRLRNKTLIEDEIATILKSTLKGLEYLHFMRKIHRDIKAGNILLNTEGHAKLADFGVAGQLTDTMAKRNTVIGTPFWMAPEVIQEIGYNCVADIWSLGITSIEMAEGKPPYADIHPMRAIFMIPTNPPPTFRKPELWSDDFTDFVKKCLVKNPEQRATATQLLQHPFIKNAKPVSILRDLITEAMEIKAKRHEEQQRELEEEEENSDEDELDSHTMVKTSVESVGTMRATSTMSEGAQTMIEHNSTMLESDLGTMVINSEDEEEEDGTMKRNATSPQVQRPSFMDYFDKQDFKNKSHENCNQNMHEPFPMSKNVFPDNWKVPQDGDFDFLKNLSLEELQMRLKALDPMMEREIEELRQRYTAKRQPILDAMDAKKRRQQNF

[13] = target: MASTL (Homo sapiens, UniProt Q96GX5)
MASTL, sequence (Q96GX5 whole entry): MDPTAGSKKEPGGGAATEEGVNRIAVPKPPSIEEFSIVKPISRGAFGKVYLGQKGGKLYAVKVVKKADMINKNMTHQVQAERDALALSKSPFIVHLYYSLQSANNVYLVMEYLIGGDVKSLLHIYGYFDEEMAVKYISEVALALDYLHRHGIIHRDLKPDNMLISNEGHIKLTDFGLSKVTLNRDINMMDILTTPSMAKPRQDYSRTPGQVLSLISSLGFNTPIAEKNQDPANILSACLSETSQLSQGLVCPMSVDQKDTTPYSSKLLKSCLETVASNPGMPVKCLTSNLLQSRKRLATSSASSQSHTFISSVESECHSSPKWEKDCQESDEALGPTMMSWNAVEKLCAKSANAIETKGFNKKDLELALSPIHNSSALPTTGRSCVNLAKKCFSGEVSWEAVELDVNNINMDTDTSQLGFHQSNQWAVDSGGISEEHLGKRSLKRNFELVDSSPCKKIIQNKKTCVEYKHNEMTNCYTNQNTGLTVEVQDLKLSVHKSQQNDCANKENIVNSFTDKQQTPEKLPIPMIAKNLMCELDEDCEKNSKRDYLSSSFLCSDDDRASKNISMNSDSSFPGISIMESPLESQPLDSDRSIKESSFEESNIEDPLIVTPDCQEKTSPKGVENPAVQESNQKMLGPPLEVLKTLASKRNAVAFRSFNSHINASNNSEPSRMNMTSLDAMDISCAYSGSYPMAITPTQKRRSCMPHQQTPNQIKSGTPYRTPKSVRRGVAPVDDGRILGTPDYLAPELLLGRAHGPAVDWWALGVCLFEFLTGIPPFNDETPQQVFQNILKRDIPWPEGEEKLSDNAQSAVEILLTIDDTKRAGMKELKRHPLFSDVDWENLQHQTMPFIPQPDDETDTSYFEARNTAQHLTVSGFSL

[14] = target: MAP3K4 (Homo sapiens, UniProt Q9Y6R4)
[15] = target: CHEK2 (Homo sapiens, UniProt O96017)
[16] = target: BMP2K (Homo sapiens, UniProt Q9NSY1)
BMP2K, sequence (Q9NSY1 whole entry): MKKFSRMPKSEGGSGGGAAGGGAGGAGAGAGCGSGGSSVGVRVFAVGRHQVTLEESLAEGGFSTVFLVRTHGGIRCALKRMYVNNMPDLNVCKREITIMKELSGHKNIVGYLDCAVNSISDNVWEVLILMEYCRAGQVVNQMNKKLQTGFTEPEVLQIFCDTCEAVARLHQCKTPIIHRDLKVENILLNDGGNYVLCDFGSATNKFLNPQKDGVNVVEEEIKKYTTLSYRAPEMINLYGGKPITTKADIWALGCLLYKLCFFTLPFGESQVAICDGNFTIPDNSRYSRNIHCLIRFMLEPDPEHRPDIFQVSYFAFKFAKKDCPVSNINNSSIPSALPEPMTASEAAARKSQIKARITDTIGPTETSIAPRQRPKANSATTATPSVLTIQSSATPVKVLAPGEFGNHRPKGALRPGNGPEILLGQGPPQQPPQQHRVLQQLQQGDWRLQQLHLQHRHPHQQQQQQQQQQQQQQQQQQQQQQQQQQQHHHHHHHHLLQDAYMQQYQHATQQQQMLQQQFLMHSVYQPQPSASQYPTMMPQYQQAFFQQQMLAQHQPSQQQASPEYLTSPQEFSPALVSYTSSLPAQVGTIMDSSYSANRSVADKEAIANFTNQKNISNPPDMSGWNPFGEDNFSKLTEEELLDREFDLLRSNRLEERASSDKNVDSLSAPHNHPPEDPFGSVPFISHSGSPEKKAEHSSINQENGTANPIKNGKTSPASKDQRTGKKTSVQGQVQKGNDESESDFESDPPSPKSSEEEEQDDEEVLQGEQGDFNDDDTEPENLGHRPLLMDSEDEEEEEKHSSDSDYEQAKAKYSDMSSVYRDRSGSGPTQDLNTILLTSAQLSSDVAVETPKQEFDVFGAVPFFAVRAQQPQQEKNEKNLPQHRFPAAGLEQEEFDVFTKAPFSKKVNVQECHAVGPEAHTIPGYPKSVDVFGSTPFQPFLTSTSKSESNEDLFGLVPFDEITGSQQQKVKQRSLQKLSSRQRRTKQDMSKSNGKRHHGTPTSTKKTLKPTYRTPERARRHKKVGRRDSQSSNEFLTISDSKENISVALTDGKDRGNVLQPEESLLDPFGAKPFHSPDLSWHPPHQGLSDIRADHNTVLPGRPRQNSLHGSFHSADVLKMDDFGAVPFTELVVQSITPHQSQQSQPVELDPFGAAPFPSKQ

[17] = target: STK4 (Homo sapiens, UniProt Q13043)
[18] = target: CIT (Homo sapiens, UniProt O14578)
[19] = target: MARK1 (Homo sapiens, UniProt Q9P0L2)
[20] = target: ITK (Homo sapiens, UniProt Q08881)
[21] = target: SERPINB2 (Homo sapiens, UniProt P05120)

Measured: IC50

COc1ccccc1-c1n[nH]c2nc(N[C@H]3CC[C@H](NS(=O)(=O)CCC(F)(F)F)CC3)nc(OC)c12 [compound 31, 3,3,3-Trifluoro-N-(trans-4-((4-methoxy-3-(2-methoxyphenyl)-1H-pyrazolo[3,4-d]pyrimidin-6-yl)amino)cyclohexyl)propane-1-sulfonamide]
≥ 20 µM: [1] | [2] | [3] | [4] | [5] | [6] | [7] | [8] | [9] | [10] | [11]

COc1nc(N[C@H]2CC[C@H](NS(=O)(=O)CC(C)C)CC2)nc2[nH]nc(N3CCOC[C@H]3C)c12 [compound 39, N-(trans-4-((4-Methoxy-3-((R)-3-methylmorpholino)-1H-pyrazolo[3,4-d]pyrimidin-6-yl)amino)cyclohexyl)-2-methylpropane-1-sulfonamide]
≥ 20 µM: [12] | [13] | [14] | [15] | [16] | [17] | [18] | [19] | [20] | [21]
